# pIC50: −log10 of the molar value. Numbered stars: 1 amine (or outer) side, 2 acyl side, 3 side chain; on linkers, the order of the positions; unused ones are H or OH. Peptide text beside a SMILES is read from it. * marks the point of attachment. Suc = O=C(CCC(=O)[*:2])[*:1]; NHPh = c1ccc(N*)cc1
# Molecular target: T1, VLA4 (Homo sapiens, UniProt P05556+P13612)
# T1 construct: endogenous in cells; host or cells: Ramos cells
# Assay: Inhibition of VLA4-dependent adhesion of Ramos cells to BSA-CS1
# Assay type: cell-based
# Conditions: not given
# Description: For example, the cell adhesion inhibitory activity of these compounds may be measured by determining the concentration of inhibitor required to block the binding of VLA-4-expressing cells to fibronectin- or CS1-coated plates. In this assay microtiter wells are coated with either fibronectin (containing the CS1-sequence) or CS-1. If CS-1 is used, it must be conjugated to a carrier protein, such as bovine serum albumin, in order to bind to the wells. Once the wells are coated, varying concentrations of the test compound are then added together with appropriately labelled, VLA-4-expressing cells. Alternatively, the test compound may be added first and allowed to incubate with the coated wells prior to the addition of the cells. The cells are allowed to incubate in the wells for at least 30 minutes. Following incubation, the wells are emptied and washed. Inhibition of binding is measured by quantitating the fluorescence or radioactivity bound to the plate for each of the various concentrations of test compound, as well as for controls containing no test compound.
# VLA-4-expressing cells that may be utilized in this assay include Ramos cells, Jurkat cells, A375 melanoma cells, as well as human peripheral blood lymophocytes (PBLs). The cells used in this assay may be fluorescently or radioactively labelled.
# This assay was used to assess the potency of VLA4-directed inhibitory compounds of this invention. 1.
# We dissolved BSA-SMCC (Pierce Chemical, Rockford, Ill.; Catalog #77115) in H2O at a concentration of 10 mg/mL. [SEQ ID NO:4]: […](“Cys-Tyr-CS1 peptide”), which we synthesized by conventional solid phase chemistry and purified by HPLC, was dissolved in 10 mM HEPES pH 5, 50 mM NaCl and 0.1 mM EDTA also at a concentration of 10 mg/mL. We then mixed 500 μL of BSA-SMCC, 250 μL of Cys-Tyr-CS1 peptide and 75 μL of 1 mM HEPES pH 7.5 and allowed the conjugation reaction to proceed for 30 minutes. We stopped the reaction by adding 1 μL of beta-mercaptoethanol. Samples were analyzed for cross-linking by SDS-PAGE.
# We coated the wells of a Linbro titertek polystyrene 96-well flat bottom plate (Flow Laboratories, Maclean, Va.; catalog #76-231-05) with 100 μL of the above-described BSA-CS1 solution diluted to 1 μg/mL in 0.05 M NaHCO3 (15 mM NaHCO3, 35 mM Na2CO3) pH 9.2. Some wells were not coated with CS1 in order to assess non-specific cell binding (NSB). The plate was then incubated overnight at 4° C.
# Following this incubation, the contents of the wells were removed by inverting and blotting the plate. All of the wells were then blocked with 100 μL of 1% BSA in PBS, 0.02% NaN3, for a minimum of one hour at room temperature.
# Ramos cells are grown, maintained and labelled in RPMI 1640 culture medium containing 1% BSA. Just prior to running the assay, we added 2′, 7′-bis-(2-carboxyethyl)-5(and -6)carboxyfluorescein acetoxymethyl ester (“BCECF-AM”; Molecular Probes Inc., Eugene, Oregon; catalog #B-1150) to a final concentration of 2 μM to a culture of Ramos cells (4×10^6 cells/mL). We incubated the cells for 20 minutes at 37° C.
# Following labelling, the cells were washed twice in assay buffer (24 mM TRIS, 137 mM NaCl, 2.7 mM KCl, pH 7.4, containing 0.1 BSA and 2mM glucose) to remove any cations originating from the culture medium. The cells were then resuspended in assay buffer to 4×10^6 cells/mL and 2 mM MnCl2 was added to upregulate VLA4 on the surface of the cells.
# Immediately prior to running the assay, we removed the BSA blocking solution from the 96-well plates and washed the wells with 100 μL of assay buffer. We then added to each well 25 μL of test cell adhesion inhibitory compound at 2×the final concentration and 25 μL of the labelled Ramos cells. […] Each concentration of compound was tested in triplicate. The compound and cells are allowed to incubate for 30 minutes at room temperature.
# T1 sequence (P13612 34-1032): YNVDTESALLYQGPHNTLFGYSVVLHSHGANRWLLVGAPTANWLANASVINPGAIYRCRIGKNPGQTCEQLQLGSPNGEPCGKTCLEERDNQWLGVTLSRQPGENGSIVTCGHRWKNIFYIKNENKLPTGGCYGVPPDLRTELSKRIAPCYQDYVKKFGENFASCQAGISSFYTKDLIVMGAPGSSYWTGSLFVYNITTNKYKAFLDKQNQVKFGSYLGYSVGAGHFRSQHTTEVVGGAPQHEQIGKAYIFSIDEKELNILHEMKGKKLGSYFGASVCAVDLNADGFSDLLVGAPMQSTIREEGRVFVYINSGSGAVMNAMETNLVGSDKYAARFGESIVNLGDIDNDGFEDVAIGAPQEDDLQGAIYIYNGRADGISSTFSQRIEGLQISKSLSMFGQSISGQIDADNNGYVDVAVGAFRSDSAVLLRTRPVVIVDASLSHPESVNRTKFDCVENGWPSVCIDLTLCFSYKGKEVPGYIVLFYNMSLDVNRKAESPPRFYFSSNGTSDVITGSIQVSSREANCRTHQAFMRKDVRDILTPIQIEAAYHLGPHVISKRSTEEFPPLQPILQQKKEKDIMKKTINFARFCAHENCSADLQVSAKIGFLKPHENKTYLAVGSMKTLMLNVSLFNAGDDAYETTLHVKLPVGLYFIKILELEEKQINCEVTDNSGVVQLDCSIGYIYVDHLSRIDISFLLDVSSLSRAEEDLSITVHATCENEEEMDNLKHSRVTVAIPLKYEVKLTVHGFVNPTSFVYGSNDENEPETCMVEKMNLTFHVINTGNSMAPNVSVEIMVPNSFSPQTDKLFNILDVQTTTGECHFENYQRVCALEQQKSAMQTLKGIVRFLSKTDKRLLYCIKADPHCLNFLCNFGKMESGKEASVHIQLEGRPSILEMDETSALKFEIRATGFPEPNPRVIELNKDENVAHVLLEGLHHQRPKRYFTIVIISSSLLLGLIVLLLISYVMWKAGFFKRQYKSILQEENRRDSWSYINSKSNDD
# T1 sequence (P05556 21-798): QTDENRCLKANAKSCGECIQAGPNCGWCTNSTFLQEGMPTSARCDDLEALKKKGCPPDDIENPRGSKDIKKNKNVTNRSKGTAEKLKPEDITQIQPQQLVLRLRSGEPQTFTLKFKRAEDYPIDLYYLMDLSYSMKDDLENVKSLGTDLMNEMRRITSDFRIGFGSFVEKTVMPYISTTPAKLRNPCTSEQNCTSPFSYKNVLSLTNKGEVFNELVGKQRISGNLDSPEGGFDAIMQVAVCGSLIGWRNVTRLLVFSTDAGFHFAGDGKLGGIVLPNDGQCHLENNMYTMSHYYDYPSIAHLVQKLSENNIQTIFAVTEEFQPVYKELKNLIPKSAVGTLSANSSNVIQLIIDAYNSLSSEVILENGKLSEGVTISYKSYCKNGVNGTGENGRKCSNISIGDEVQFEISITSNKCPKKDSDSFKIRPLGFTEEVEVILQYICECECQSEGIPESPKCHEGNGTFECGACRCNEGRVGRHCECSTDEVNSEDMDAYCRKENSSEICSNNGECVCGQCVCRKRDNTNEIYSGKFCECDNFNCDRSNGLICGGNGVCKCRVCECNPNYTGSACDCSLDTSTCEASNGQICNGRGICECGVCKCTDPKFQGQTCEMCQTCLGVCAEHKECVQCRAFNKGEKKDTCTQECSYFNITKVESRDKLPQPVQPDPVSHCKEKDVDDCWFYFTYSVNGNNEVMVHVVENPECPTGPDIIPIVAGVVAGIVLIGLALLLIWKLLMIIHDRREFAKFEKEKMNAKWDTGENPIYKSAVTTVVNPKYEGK
row,SMILES,pIC50
1,CC(C)C[C@H](NC(=O)C1CCc2ccccc2N1)C(=O)N[C@@H](CC(=O)O)C(=O)N[C@H](C(=O)N1CCC(c2ccccc2)CC1)C(C)C (some centres unmarked) [Compound 115],< 5.00
2,CC(C)CC(NC(=O)C1CCc2ccccc2N1)C(=O)NC(CC(=O)O)C(=O)NC(C(=O)N(C)c1ccccc1)C(C)C (centres unmarked) [Compound 120],< 5.00

# Same assay, conditions: Ramos cells, BSA-CS1 coated wells, 2 mM MnCl2, 30 minutes at room temperature; read-out: IC50
row,SMILES,pIC50
1,CC(C)[C@H](NC(=O)[C@H](CC(=O)O)NC(=O)[C@H](C)NC(=O)c1cc2ccccc2cn1)C(=O)O [Compound 97],< 5.00
2,CC(C)C[C@H](NC(=O)CCCCc1ccccc1)C(=O)N[C@@H](CC(=O)O)C(=O)N[C@H](C(=O)O)C(C)C [Compound 98],< 5.00
3,CC(C)C[C@H](NC(=O)c1cc2ccccc2[nH]1)C(=O)N[C@@H](CC(=O)O)C(=O)N[C@H](C(=O)O)C(C)C [Compound 99],< 5.00
4,CC(C)CNC(=O)[C@H](CC(=O)O)NC(=O)[C@H](CC(C)C)NC(=O)CCc1ccc(O)cc1 [Compound 100],< 5.00
5,CC(C)CNC(=O)[C@H](CC(=O)O)NC(=O)[C@H](CC(C)C)NC(=O)c1ccccc1 [Compound 101],< 5.00
6,CC(C)CCNC(=O)[C@H](CC(=O)O)NC(=O)[C@H](CC(C)C)NC(=O)CCCCc1ccccc1 [Compound 102],< 5.00
7,CC(C)CCNC(=O)[C@H](CC(=O)O)NC(=O)[C@H](CC(C)C)NC(=O)CCc1ccc(O)cc1 [Compound 103],< 5.00
8,CC(C)C[C@H](NC(=O)CCCCCc1ccccc1)C(=O)N[C@@H](CC(=O)O)C(=O)N[C@H](C(=O)O)C(C)C [Compound 104],< 5.00
9,CC(C)C[C@H](NC(=O)c1ccccc1)C(=O)N[C@@H](CC(=O)O)C(=O)N[C@H](C(=O)O)C(C)C [Compound 105] (HELM PEPTIDE1{[O=C(c1ccccc1)[*:2]].L.D.V}$$$$V2.0),< 5.00
10,CC(C)CNC(=O)[C@H](CC(=O)O)NC(=O)[C@H](CC(C)C)NC(=O)CCCCc1ccccc1 [Compound 106],< 5.00
11,CC(C)C[C@H](NC(=O)CCC(=O)Nc1ccccc1)C(=O)N[C@@H](CC(=O)O)C(=O)N[C@H](C(=O)O)C(C)C [Compound 107] ({NHPh-Suc}-Leu-Asp-Val-OH),< 5.00
12,CC(C)C[C@H](NC(=O)CCC(=O)Nc1ccc(F)cc1)C(=O)N[C@@H](CC(=O)O)C(=O)N[C@H](C(=O)O)C(C)C [Compound 108],< 5.00
13,CC(C)C[C@H](NC(=O)CCC(=O)N(C)c1ccccc1)C(=O)N[C@@H](CC(=O)O)C(=O)N[C@H](C(=O)O)C(C)C [Compound 109],< 5.00
14,CC(C)CCNC(=O)[C@H](CC(=O)O)NC(=O)[C@H](CC(C)C)NC(=O)C1CCc2ccccc2N1 (some centres unmarked) [Compound 110],< 5.00
15,CC(C)CNC(=O)[C@H](CC(=O)O)NC(=O)[C@H](CC(C)C)NC(=O)CCC(=O)Nc1ccccc1 [Compound 111],< 5.00
16,CC(C)C[C@@H](C(=O)N[C@@H](CC(=O)O)C(=O)N[C@H](C(=O)O)C(C)C)N(C)C(=O)c1ccccc1 [Compound 113] (HELM PEPTIDE1{[O=C(c1ccccc1)[*:2]].[meL].D.V}$$$$V2.0),< 5.00
17,CCCCCCNC(=O)[C@H](CC(=O)O)NC(=O)[C@H](CC(C)C)NC(=O)CCc1ccc(O)cc1 [Compound 116],< 5.00
18,CC(C)C[C@H](NC(=O)CCc1ccc(O)cc1)C(=O)N[C@@H](CC(=O)O)C(=O)N(CC(C)C)CC(C)C [Compound 117],< 5.00
19,CCCCCCNC(=O)[C@@H](NC(=O)[C@H](CC(=O)O)NC(=O)[C@H](CC(C)C)NC(=O)CCc1ccc(O)cc1)C(C)C [Compound 119],< 5.00
20,CC(C)C[C@H](NC(=O)c1ccc2ccccc2n1)C(=O)N[C@@H](CC(=O)O)C(=O)N[C@H](C(=O)N(C)c1ccccc1)C(C)C [Compound 121],< 5.00

row,SMILES,pIC50
1,CC(C)C[C@H](NC(=O)C1CCc2ccccc2N1)C(=O)N[C@@H](CC(=O)O)C(=O)N[C@H](C(=O)Nc1ccc(F)cc1)C(C)C (some centres unmarked) [Compound 122],< 5.00
2,CC(C)C[C@H](NC(=O)c1ccc2ccccc2n1)C(=O)N[C@@H](CC(=O)O)C(=O)N[C@H](C(=O)Nc1ccc(F)cc1)C(C)C [Compound 123],< 5.00
3,CC(C)C[C@H](NC(=O)C1CCc2ccccc2N1)C(=O)N[C@@H](CC(=O)O)C(=O)N[C@H](C(=O)Nc1ccccc1)C(C)C (some centres unmarked) [Compound 124],< 5.00
4,CC(C)C[C@H](NC(=O)c1ccc2ccccc2n1)C(=O)N[C@@H](CC(=O)O)C(=O)N[C@H](C(=O)Nc1ccccc1)C(C)C [Compound 125],< 5.00
5,CNC(=O)[C@@H](NC(=O)[C@H](CC(=O)O)NC(=O)[C@H](CC(C)C)N(C)C(=O)c1ccccn1)C(C)C [Compound 126],< 5.00
6,CC(C)C[C@H](NC(=O)c1ccc2ccccc2n1)C(=O)N[C@@H](CC(=O)O)C(=O)N[C@H](C(=O)N1CCN(c2ccccc2)CC1)C(C)C [Compound 127],< 5.00
7,CNC(=O)[C@@H](NC(=O)[C@H](CC(=O)O)NC(=O)[C@H](CC(C)C)N(C)C(=O)c1ccc(OC)cc1)C(C)C [Compound 128],< 5.00
8,CNC(=O)[C@@H](NC(=O)[C@H](CC(=O)O)NC(=O)[C@H](Cc1ccc(O)cc1)NC(=O)Cc1ccccc1)C(C)C [Compound 129] (HELM PEPTIDE1{[O=C(Cc1ccccc1)[*:2]].Y.D.V.[CN[*:1]]}$$$$V2.0),< 5.00
9,CNC(=O)[C@@H](NC(=O)[C@H](CC(=O)O)NC(=O)[C@@H]1CCCN1C(=O)Cc1ccccc1)C(C)C [Compound 130] (HELM PEPTIDE1{[O=C(Cc1ccccc1)[*:2]].P.D.V.[CN[*:1]]}$$$$V2.0),< 5.00
10,CNC(=O)[C@@H](NC(=O)[C@H](CC(=O)O)NC(=O)[C@H](CCCNC(=N)N)NC(=O)Cc1ccccc1)C(C)C [Compound 131] (HELM PEPTIDE1{[O=C(Cc1ccccc1)[*:2]].R.D.V.[CN[*:1]]}$$$$V2.0),< 5.00
11,CNC(=O)[C@@H](NC(=O)[C@H](CC(=O)O)NC(=O)[C@H](CC(N)=O)NC(=O)Cc1ccccc1)C(C)C [Compound 132] (HELM PEPTIDE1{[O=C(Cc1ccccc1)[*:2]].N.D.V.[CN[*:1]]}$$$$V2.0),< 5.00
12,CNC(=O)[C@@H](NC(=O)[C@H](CC(=O)O)NC(=O)C1(NC(=O)OC(C)(C)C)CCc2ccccc2C1)C(C)C (some centres unmarked) [Compound 133],< 5.00
13,CNC(=O)[C@@H](NC(=O)[C@H](CC(=O)O)NC(=O)C1(NC(=O)Cc2ccccc2)CCc2ccccc2C1)C(C)C (some centres unmarked) [Compound 134],< 5.00
14,CC(C)(C)OC(=O)N[C@@H](CC(=O)O)C(=O)N1CCC[C@H]1C(=O)NCC(=O)O [Compound 135] (HELM PEPTIDE1{[CC(C)(C)OC(=O)[*:2]].D.P.G}$$$$V2.0),< 5.00
15,O=C(O)CNC(=O)[C@@H]1CCCN1C(=O)[C@H](CC(=O)O)NC(=O)Cc1ccccc1 [Compound 136] (HELM PEPTIDE1{[O=C(Cc1ccccc1)[*:2]].D.P.G}$$$$V2.0),< 5.00
16,CC(C)C[C@H](NC(=O)Cc1ccccc1)C(=O)N[C@@H](CC(=O)O)C(=O)N1CCC[C@H]1C(=O)NC(C(=O)O)C(=O)O [Compound 138],< 5.00
17,COC(=O)[C@@H](NC(=O)[C@H](CC(=O)O)NC(=O)[C@H](CC(C)C)N(C)C(=O)CCc1ccccc1)C(C)C [Compound 140] (HELM PEPTIDE1{[O=C(CCc1ccccc1)[*:2]].[meL].D.V.[CO[*:1]]}$$$$V2.0),< 5.00
18,COC(=O)[C@@H](NC(=O)[C@H](CC(=O)O)NC(=O)[C@H](CC(C)C)N(C)C(=O)Cc1ccc(O)cc1)C(C)C [Compound 141],< 5.00
19,COC(=O)[C@@H](NC(=O)[C@H](CC(=O)O)NC(=O)[C@H](CC(C)C)N(C)C(=O)c1ccc2ccccc2n1)C(C)C [Compound 142],< 5.00

# Reference: patent US6596687B1, “Cell adhesion inhibitors” (Biogen, Inc., priority 1995, dated 2003)
